According to US6737058B2, “Methods for inhibiting endothelial cell and fibrinogen mediated inflammation using fibrinogen specific antibodies” (The Scripps Research Institute, priority 1992, dated 2004):

Columns and labels:
[1] = test system: bovine aortic endothelial cells (BAE); test: Fibrinogen-mediated adhesion of 51Cr-labelled THP-1 cells to bovine aortic endothelial cells; type: cell-based; details: 500 μg/ml fibrinogen
Protocol: Cell adhesion binding assays described above were performed on bovine aortic endothelial cells (BAE) to determine if fibrinogen could mediate the binding of ^51Cr-labelled THP-1 cells to endothelial cells from a different source. Cell cultures were prepared from bovine aorta following procedures known to one skilled in the art. THP-1 cells were either left untreated or treated with 500 μg/ml fibrinogen over a 60 minute time course. At selected time points, the cells were harvested as described in Example 3B1) and the number of attached THP-1 cells were determined as previously described. […] However, in the presence of fibrinogen, approximately 20,000 cells bound to BAE cells after a 40 minute maintenance period. This maximum binding dropped off at 60 minutes to approximately 15,000 attached cells. Binding of THP-1 cells to HUVEC was done in parallel as a control for the experiment; the non-saturable binding of THP-1 cells in the presence of fibrinogen was maximal at 60 minutes with approximately 25,000 cells attached. Thus, fibrinogen mediates the binding of THP-1 cells not only to human endothelial cells but also to bovine-derived endothelial cells.

HUVEC [2] = test: Iodinated D30 binding to HUVEC monolayers and its competition; set-up: species or system human; details: 50 fold molar excess of cold fibrinogen; myoglobin as nonspecific protein
Protocol: Binding assays described above in Example 3A2) were also performed with the fibrinogen homolog, D30, to determine if that region of fibrinogen also immunoreacted with HUVEC. Since D30 was known to bind to leukocytes via the Mac-1 receptor as described by Altieri et al., J. Biol. Chem., 265:12119-12122 (1990), these experiments were performed to determine if regions of fibrinogen mediating the binding of leukocytes to HUVEC are contained within the D30 fragment. For this analysis, the D30 fragment of fibrinogen prepared in Example 1B was labelled with ^125I as described for labelling of fibrinogen above. Iodinated D30 was admixed to HUVEC monolayers at a concentration of 10 μg/ml to form a binding complex. After washing the cells to remove the unbound D30 as described in Example 3A2) above, the cells were solubilized and the amount of bound radioactivity was determined. The binding of D30 to HUVEC was maximal at 120 minutes of the maintenance period with approximately 60,000 cpm.

HUVEC [3] = test: 125I-labelled fibrinogen binding to HUVEC monolayers, dose dependency; set-up: species or system human; details: monolayers of unstimulated HUVEC, 22° C., 45 minutes, 2.5 mM CaCl2
Protocol: Fibrinogen was iodinated using the Iodogen™ method. Briefly, Iodogen™ was dissolved in dichloromethane for a final concentration of 1 μg/ml and 170 μl of dissolved Iodogen™ that was dried in the bottom of a glass tube. Fibrinogen, prepared in Example 1A, was resuspended in 0.055 M sodium citrate buffer, pH 7.4, for a final concentration of 5 μg/ml. Two hundred μl of dissolved fibrinogen solution was placed into the Iodogen™-coated tube with 700 μCi of carrier-free sodium iodide. The admixture was maintained on ice for 20 minutes with occasional agitation. To stop the iodination reaction, the admixture was removed from the tube and gel filtered on a […]™ G-25 coarse column (100×2.5). Fractions of iodinated fibrinogen were determined by trichloroacetic acid precipitable counts. The labelled fibrinogen produced was radiolabelled to a specific activity of 0.3 μCi/μg of protein. Labelled fibrinogen was used in the binding and inhibition of binding assays described herein at a concentration of 50 μg/ml whereas unlabelled fibrinogen was generally used at a concentration of 500 μg/ml. […]
The resultant admixtures were maintained at 22° C. for 45 minutes to allow for fibrinogen to bind to the plated HUVEC. […] The cells were then solubilized in 10% SDS and the radioactivity associated under the maintenance conditions was quantitated in a gamma counter.

For “fibrinogen: fibrinogen isolated from fresh plasma by cold ethanol fractionation, fibronectin-free”, the “THP-1 cells bound to BAE cells” value ([1]; 40 minutes) was “approximately 20,000 cells”, the “THP-1 cells bound to BAE cells” value ([1]; 60 minutes) was “approximately 15,000 cells” and the “competition of D30 binding to HUVEC” value (HUVEC [2]) was “specifically competed”. For the same substance, the “concentration at which 125I-labelled fibrinogen binds saturably” value (HUVEC [3]) was “approximately 0.36 μM”.
